Laboratory results: patent US10597388B2, “Pyridazinone herbicides” (FMC CORPORATION, priority 2014, dated 2020)

Legend:
Type in all cases: in vivo
kochia (Kochia scoparia) = assay: Test A greenhouse herbicide test, pre- and postemergence
Excerpt: (§1) Seeds of plant species selected from barnyardgrass (Echinochloa crus-galli), kochia (Kochia scoparia), ragweed (common ragweed, Ambrosia elatior), ryegrass, Italian (Italian ryegrass, Lolium multiflorum), crabgrass, large (large crabgrass, Digitaria sanguinalis), foxtail, giant (giant foxtail, Setaria faberii), momingglory (Ipomoea spp.), pigweed (Amaranthus retroflexus), velvetleaf (Abutilon theophrasti), wheat (Triticum aestivum), and corn (Zea mays) were planted into a blend of loam soil and sand and treated preemergence with a directed soil spray using test chemicals formulated in a non-phytotoxic solvent mixture which included a surfactant.
(§2) At the same time, plants selected from these crop and weed species and also blackgrass (Alopecurus myosuroides), and galium (catchweed bedstraw, Galium aparine) were planted in pots containing the same blend of loam soil and sand and treated with postemergence applications of test chemicals formulated in the same manner. Plants ranged in height from 2 to 10 cm and were in the one- to two-leaf stage for the postemergence treatment. Treated plants and untreated controls were maintained in a greenhouse for approximately 10 d, after which time all treated plants were compared to untreated controls and visually evaluated for injury. Plant response ratings, summarized in Table A, are based on a 0 to 100 scale where 0 is no effect and 100 is complete control. A dash (-) response means no test result.

[1] = system: foxtail, giant (giant foxtail, Setaria faberii); assay: as above
Excerpt: as §1, §2

[2] = system: wheat (Triticum aestivum); assay: as above; conditions: Postemergence; for Plant response rating, Wheat: 125 g ai/ha, 0 to 100 scale where 0 is no effect and 100 is complete control; for Wheat plant response rating: 500 g ai/ha, 0 to 100 scale, 0 is no effect, 100 is complete control
Excerpt: as §1, §2

[3] = system: pigweed (Amaranthus retroflexus); assay: as above
Excerpt: as §1, §2

[4] = system: ryegrass, Italian (Italian ryegrass, Lolium multiflorum); assay: as above
Excerpt: as §1, §2

[5] = system: ragweed (common ragweed, Ambrosia elatior); assay: as above
Excerpt: as §1, §2

[6] = system: barnyardgrass (Echinochloa crus-galli); assay: as above
Excerpt: as §1, §2

corn (Zea mays) = assay: as above; conditions: Postemergence; for Plant response rating, Corn: 125 g ai/ha, 0 to 100 scale where 0 is no effect and 100 is complete control; for Corn plant response rating: 500 g ai/ha, 0 to 100 scale, 0 is no effect, 100 is complete control
Excerpt: as §1, §2

[7] = system: galium (catchweed bedstraw, Galium aparine); assay: Test A greenhouse herbicide test, postemergence; conditions: for Plant response rating, Galium: 125 g ai/ha, 0 to 100 scale where 0 is no effect and 100 is complete control; for Galium plant response rating: 500 g ai/ha, 0 to 100 scale, 0 is no effect, 100 is complete control
Summary of the method: (§3)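 Pot-grown plants (loam soil/sand blend), 2–10 cm tall at the one- to two-leaf stage, received postemergence sprays of formulated test chemical. After about 10 d in the greenhouse, injury was rated visually against untreated controls on a 0 (no effect) to 100 (complete control) scale.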

[8] = system: blackgrass (Alopecurus myosuroides); assay: Test A greenhouse herbicide test, postemergence; conditions: for Plant response rating, Blackgrass: 125 g ai/ha, 0 to 100 scale where 0 is no effect and 100 is complete control; for Blackgrass plant response rating: 500 g ai/ha, 0 to 100 scale, 0 is no effect, 100 is complete control
Summary of the method: as §3

[9] = Postemergence, 125 g ai/ha, 0 to 100 scale where 0 is no effect and 100 is complete control
[10] = Postemergence, 500 g ai/ha, 0 to 100 scale, 0 is no effect, 100 is complete control
[11] = Preemergence, 125 g ai/ha, 0 to 100 scale where 0 is no effect and 100 is complete control
[12] = Preemergence, 500 g ai/ha, 0 to 100 scale where 0 is no effect and 100 is complete control
[13] = Preemergence, 500 g ai/ha, 0 to 100 scale, 0 no effect, 100 complete control

Structure (SMILES)	Plant response rating, Kochia (kochia (Kochia scoparia); [9])	Kochia plant response rating (kochia (Kochia scoparia); [10])	Kochia plant response rating (kochia (Kochia scoparia); [11])	Plant response rating, Kochia (kochia (Kochia scoparia); [12])	Plant response rating, Foxtail, Giant [1, 9]	Foxtail, Giant plant response rating [1, 10]	Foxtail, Giant plant response rating [1, 11]	Plant response rating, Foxtail, Giant [1, 12]	Plant response rating, Wheat [2]	Wheat plant response rating [2]	Plant response rating, Pigweed [3, 9]	Pigweed plant response rating [3, 10]	Pigweed plant response rating [3, 11]	Plant response rating, Pigweed [3, 12]	Plant response rating, Ryegrass, Italian [4, 9]	Ryegrass, Italian plant response rating [4, 10]	Ryegrass, Italian plant response rating [4, 11]	Plant response rating, Ryegrass, Italian [4, 12]	Plant response rating, Ragweed [5, 9]	Ragweed plant response rating [5, 10]	also measured
Cc1nn(C)c(=O)c(-c2cccc3ccc(I)cc23)c1O [Compound 70]	50	60	10	40	30	25	0	30	0	0	80	80	60	100	60	80	60	90	40	70	Ragweed plant response rating [5, 11]: 70; Plant response rating, Ragweed [5, 12]: 80; Plant response rating, Barnyardgrass [6, 9]: 0; Barnyardgrass plant response rating [6, 10]: 10; Barnyardgrass plant response rating [6, 11]: 0; Plant response rating, Barnyardgrass [6, 13]: 30; Plant response rating, Corn (corn (Zea mays)): 0; Corn plant response rating (corn (Zea mays)): 0; Plant response rating, Galium [7]: 70; Galium plant response rating [7]: 90; Plant response rating, Blackgrass [8]: 10; Blackgrass plant response rating [8]: 30
Cc1nn(C)c(=O)c(-c2cccc3ccc(C4CC4)cc23)c1O [Compound 71]	50	70	0	20	0	20	0	50	0	20	70	80	30	100	30	90	0	70	70	70	Ragweed plant response rating [5, 11]: 0; Plant response rating, Ragweed [5, 12]: 20; Plant response rating, Barnyardgrass [6, 9]: 0; Barnyardgrass plant response rating [6, 10]: 20; Barnyardgrass plant response rating [6, 11]: 0; Plant response rating, Barnyardgrass [6, 13]: 20; Plant response rating, Corn (corn (Zea mays)): 0; Corn plant response rating (corn (Zea mays)): 20; Plant response rating, Galium [7]: 70; Galium plant response rating [7]: 90; Plant response rating, Blackgrass [8]: 30; Blackgrass plant response rating [8]: 40
CCc1nn(C)c(=O)c(-c2c(C)oc3ccc(Cl)cc23)c1O [Compound 77]	0	10	0	0	0	0	0	10	0	0	0	0	0	0	20	60	10	40	0	0	Ragweed plant response rating [5, 11]: 0; Plant response rating, Ragweed [5, 12]: 0; Plant response rating, Barnyardgrass [6, 9]: 0; Barnyardgrass plant response rating [6, 10]: 0; Barnyardgrass plant response rating [6, 11]: 0; Plant response rating, Barnyardgrass [6, 13]: 10; Plant response rating, Corn (corn (Zea mays)): 0; Corn plant response rating (corn (Zea mays)): 0; Plant response rating, Galium [7]: 20; Galium plant response rating [7]: 60; Plant response rating, Blackgrass [8]: 0; Blackgrass plant response rating [8]: 0
Cc1nn(C)c(=O)c(-c2c(Cl)n(C)c3ccccc23)c1O [Compound 95]	0	10	0	10	0	0	0	0	0	0	0	0	0	20	10	50	10	60	0	10	Ragweed plant response rating [5, 11]: 0; Plant response rating, Ragweed [5, 12]: 20; Plant response rating, Barnyardgrass [6, 9]: 0; Barnyardgrass plant response rating [6, 10]: 10; Barnyardgrass plant response rating [6, 11]: 0; Plant response rating, Barnyardgrass [6, 12]: 0; Plant response rating, Corn (corn (Zea mays)): 0; Corn plant response rating (corn (Zea mays)): 0; Plant response rating, Galium [7]: 20; Galium plant response rating [7]: 60; Plant response rating, Blackgrass [8]: 0; Blackgrass plant response rating [8]: 10
